Where two headings read alike, the source gives them in different places.
System: cancer cell lines from the cancer cell line encyclopedia (CCLE)
Assay: Cell line profiling (CLiP) proliferation experiment
Type: cell-based
Details: Homo sapiens; for IC50: read-out: Crossing Point; for EC50: read-out: Inflection Point
Description: Compound profiling experiment and data analysis was performed as previously described. Data was imported and plotted using the Tibco Spotfire DXP application. Lines were categorized as sensitive, intermediate and refractory as follows: Amax<-40 & Inflection Point <2 ~ Sensitive, Amax>-20 & Inflection Point >10 ~ Refractory, all else were called Intermediate. Cancer Cell line HG-U133 Plus 2 data was processed and normalized as described. […] Five sets of refractory cell lines were generated from the pool of refractory cell lines trying to match the lineage composition of the set of sensitive cell lines. The limma package was used as previously described to perform the statistical comparison.

[1] = NCI-H1666, cell line NCI-H1666 (lung)
[2] = NCI-H1703, cell line NCI-H1703 (lung)
[3] = NCI-H1734, cell line NCI-H1734 (lung)
[4] = NCI-H1793, NCI-H1793, lung, adenocarcinoma
[5] = NCI-H2122, NCI-H2122, lung, adenocarcinoma
[6] = NCI-H2405, NCI-H2405, lung, adenocarcinoma
[7] = NCI-H3255, NCI-H3255, lung, adenocarcinoma
[8] = NUGC-4, NUGC-4, stomach, signet_ring_adenocarcinoma
[9] = OC-314, OC 314, ovary, serous_carcinoma
[10] = OCI-LY19, OCI-LY-19, haematopoietic_and_lymphoid_tissue, diffuse_large_B_cell_lymphoma
[11] = P12-Ichikawa, P12-ICHIKAWA cells
[12] = P12-Ichikawa, cell line P12-ICHIKAWA

CC(C)[C@@]12C[C@@H](O)[C@@](C)(O1)[C@@H]1CC[C@@H](C)[C@H]1[C@@H]2OC(=O)/C=C/c1ccccc1 [Englerin B]
IC50 [1]: 22.4 µM | EC50 [1]: 22.8 µM | IC50 (NCI-H1693, cell line NCI-H1693 (lung)): > 30 µM | IC50 (NCI-H1693, cell line NCI-H1693): > 30 µM | IC50 [2]: 14.9 µM | EC50 [2]: 23.1 µM | IC50 [3]: 19.6 µM | EC50 [3]: 19.6 µM | IC50 (NCI-H1792, NCI-H1792, lung, adenocarcinoma): 24.9 µM | IC50 (NCI-H1792, cell line NCI-H1792 (lung, adenocarcinoma)): 24.9 µM | IC50 [4]: > 30 µM | EC50 [4]: 22.5 µM | IC50 (NCI-H1793, cell line NCI-H1793): > 30 µM | IC50 (NCI-H1944, NCI-H1944, lung, adenocarcinoma): 15.8 µM | IC50 (NCI-H1944, cell line NCI-H1944): 15.8 µM | IC50 (NCI-H1975, NCI-H1975, lung, adenocarcinoma): > 30 µM | IC50 (NCI-H1975, NCI-H1975 cells): > 30 µM | IC50 [5]: > 30 µM | EC50 [5]: 10.6 µM | IC50 (NCI-H2122, cell line NCI-H2122): > 30 µM | IC50 (NCI-H2126, NCI-H2126, lung, adenocarcinoma): > 30 µM | IC50 (NCI-H2126, NCI-H2126 cells): > 30 µM | IC50 (NCI-H2170, NCI-H2170, lung, squamous_cell_carcinoma): > 30 µM | IC50 (NCI-H2170, cell line NCI-H2170): > 30 µM | IC50 [6]: > 30 µM | EC50 [6]: 14.6 µM | IC50 (NCI-H2405, cell line NCI-H2405): > 30 µM | IC50 (NCI-H2452, NCI-H2452, pleura, NS): > 30 µM | IC50 (NCI-H2452, cell line NCI-H2452): > 30 µM | IC50 [7]: 27 µM | EC50 [7]: 27 µM | IC50 (NCI-H3255, NCI-H3255 cells): 27 µM | EC50 (NCI-H3255, NCI-H3255 cells): 27 µM | IC50 (NUGC-3, NUGC-3, stomach, NS): > 30 µM | IC50 (NUGC-3, NUGC-3 cells): > 30 µM | IC50 [8]: 22 µM | EC50 [8]: 15.9 µM | EC50 (NUGC-4, NUGC-4 cells): 15.9 µM | IC50 (OAW-42, OAW42, ovary, adenocarcinoma): > 30 µM | IC50 (OAW-42, OAW42 cells): > 30 µM | IC50 [9]: > 30 µM | EC50 [9]: 14.9 µM | IC50 (OC-314, OC 314 cells): > 30 µM | EC50 (OC-314, OC 314 cells): 14.9 µM | IC50 (OCI-AML2, OCI-AML2, haematopoietic_and_lymphoid_tissue, acute_myeloid_leukaemia): 16.1 µM | IC50 (OCI-AML-3, OCI-AML3, haematopoietic_and_lymphoid_tissue, acute_myeloid_leukaemia): 18.2 µM | IC50 [10]: 14.2 µM | EC50 [10]: 14.8 µM | EC50 (OCI-LY19, OCI-LY-19 cells): 14.8 µM | IC50 (OCI-Ly3, OCI-LY3, haematopoietic_and_lymphoid_tissue, diffuse_large_B_cell_lymphoma): 13.3 µM | IC50 (OE19, OE19, oesophagus, adenocarcinoma): 20.4 µM | IC50 (OS-RC-2, OS-RC-2 cells): > 30 µM | EC50 (OS-RC-2, OS-RC-2 cells): 11.5 µM | IC50 (OS-RC-2, cell line OS-RC-2): > 30 µM | EC50 (OS-RC-2, cell line OS-RC-2): 11.5 µM | IC50 (OV-90, OV-90 cells): > 30 µM | IC50 (OV-90, cell line OV-90): > 30 µM | IC50 (OVCAR-4, cell line OVCAR-4): 29.6 µM | IC50 (OVCAR-8, cell line OVCAR-8): 20.7 µM | EC50 (OVSAHO, OVSAHO cells): 18.1 µM | IC50 (OVSAHO, cell line OVSAHO): 23.6 µM | EC50 (OVSAHO, cell line OVSAHO): 18.1 µM | IC50 (P3HR-1, cell line P3HR-1): 25.4 µM | IC50 [11]: 19.1 µM | EC50 [11]: 19.1 µM | IC50 [12]: 19.1 µM | EC50 [12]: 19.1 µM | IC50 (P31-FUJ, cell line P31/FUJ): 19.6 µM | IC50 (PANC-1, cell line PANC-1): 23.8 µM | IC50 (PANC-03-27, cell line Panc 03.27): 21.1 µM | IC50 (PC-14, cell line PC-14): 21.4 µM | EC50 (PF-382, PF-382 cells): 13.1 µM | IC50 (PF-382, cell line PF-382): 16.6 µM | EC50 (PF-382, cell line PF-382): 13.1 µM | IC50 (PLC-PRF-5, PLC/PRF/5 (liver)): 14.5 µM | IC50 (PLC-PRF-5, cell line PLC/PRF/5): 14.5 µM | IC50 (PSN1, cell line PSN1): 29.7 µM | IC50 (Panc 02.03, Panc 02.03 cells): > 30 µM | IC50 (Panc 02.03, cell line Panc 02.03): > 30 µM | IC50 (Panc 04.03, Panc 04.03 cells): > 30 µM | IC50 (Panc 04.03, cell line Panc 04.03): > 30 µM | EC50 (Panc1005, Panc 10.05 cells): 10.9 µM | IC50 (Panc1005, cell line Panc 10.05): 13 µM | EC50 (Panc1005, cell line Panc 10.05): 10.9 µM | IC50 (RD, RD cells): > 30 µM | IC50 (REH, Reh cells): 21.5 µM | EC50 (REH, Reh cells): 21.5 µM | IC50 (RPMI 8402, RPMI-8402 cells): 19.1 µM | IC50 (RPMI 8402, cell line RPMI-8402): 19.1 µM | IC50 (RPMI-7951, cell line RPMI-7951): 19.7 µM | EC50 (RPMI-7951, cell line RPMI-7951): 13.7 µM | IC50 (RPMI-8226, cell line RPMI 8226): 16.9 µM

Reference: article PMC4476799, “Englerin A Agonizes the TRPC4/C5 Cation Channels to Inhibit Tumor Cell Line Proliferation” (PLoS ONE, 2015)
